One data set deals with T1, human TfR1 (Homo sapiens, UniProt P02786).
T1 construct: received from Bicycle Therapeutics as His6-tagged TfR1 (a.a. 89-760) (ACROBiosystems, CD1-H5243 and TfR-C524a); His6; purchased ACROBiosystems CD1-H5243
The data set is described as follows: SPR binding of Bicycle peptides and conjugates to human TfR1. The following applies: SPR (Biacore), human TfR1 captured on SA chip, 5-point single cycle kinetics, PBS-P+ 1% DMSO pH 7.4; geometric mean; unconjugated Bicycle peptides.

A further data set is described as follows: Mouse plasma stability. The class given is in vitro ADME. On the procedure:
An alanine scan was performed to identify core residues involved in binding to the protein and solvent-facing residues which could be used to tune molecular properties, followed by substitutions with non-natural amino acids to identify suitable replacements at each position. In addition, peptides were synthesized to investigate the removal of the N- and C-terminal alanines, capping the N-terminal with an acetyl group, and to examine the effects of combinations with N- and C-terminal extensions. Affinity was measured using either SPR or fluorescence polarization (FP) assays, and plasma stability in mouse was determined for selected examples. Series of analogues with the azidolysine (K(N3)) or azidopropanoic acid (AzPro) were prepared on the C- and N-terminal of the Bicycle molecules, respectively. These were used to conjugate to an ASO or siRNA for further profiling.

Numbered stars: 1 amine (or outer) side, 2 acyl side, 3 side chain; on linkers, the order of the positions; unused ones are H or OH. Bridge positions count the residues as written; N and C are the ends. Peptide text beside a SMILES is read from it. TATB = O=C(C[*:1])N1CN(C(=O)C[*:2])CN(C(=O)C[*:3])C1

We go through five compounds from paper PMC11983102, “Conjugation to a transferrin receptor 1-binding Bicycle peptide enhances ASO and siRNA potency in skeletal and cardiac muscles” (Nucleic Acids Research, 2025).

T1 sequence (P02786 89-760): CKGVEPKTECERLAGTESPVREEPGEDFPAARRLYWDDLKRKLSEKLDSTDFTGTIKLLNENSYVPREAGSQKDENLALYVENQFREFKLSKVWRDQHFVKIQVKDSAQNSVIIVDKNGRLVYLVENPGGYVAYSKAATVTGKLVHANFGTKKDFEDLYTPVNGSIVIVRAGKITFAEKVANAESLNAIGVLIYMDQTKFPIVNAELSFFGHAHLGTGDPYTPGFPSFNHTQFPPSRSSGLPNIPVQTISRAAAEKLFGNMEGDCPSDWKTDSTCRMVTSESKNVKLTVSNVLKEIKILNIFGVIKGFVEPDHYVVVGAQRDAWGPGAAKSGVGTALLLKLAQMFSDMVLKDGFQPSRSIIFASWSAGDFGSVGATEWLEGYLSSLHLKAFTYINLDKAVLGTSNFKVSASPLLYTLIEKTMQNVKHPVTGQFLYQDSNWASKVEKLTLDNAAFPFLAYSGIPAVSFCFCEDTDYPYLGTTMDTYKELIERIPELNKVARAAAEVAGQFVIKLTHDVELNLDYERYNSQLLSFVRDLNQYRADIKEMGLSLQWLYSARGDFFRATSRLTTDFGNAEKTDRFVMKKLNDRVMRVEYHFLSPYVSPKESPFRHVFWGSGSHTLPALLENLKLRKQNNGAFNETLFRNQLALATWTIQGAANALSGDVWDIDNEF
Experimental for human TfR1: Biacore experiments were performed to determine ka (M^-1s^-1), kd (s^-1), KD (nM) values of various peptides binding to TfR1. […] SPR binding analysis was performed on Biacore T200 and Biacore 8K+ (Cytiva). Human TfR1 and randomly biotinylated cynomolgus monkey TfR1 were captured on Series S Sensor Chip SA (BR100531, Cytiva) at levels of approximately 1000 RU. Using an appropriate top concentration, Bicycle peptides were screened in a 5-point titration curve in single cycle kinetics format at 30 ml/minute. The running buffer was PBS-P^+, 1% DMSO at pH 7.4. The data was solvent-corrected for DMSO bulk effects. In addition, all data was double corrected against the reference flow cell and matched buffer blanks. Data processing and kinetic fitting were performed using Biacore T200 Evaluation Software or Biacore Insight Evaluation. The data was fitted using the 1:1 binding model or steady-state affinity model where appropriate. The geometric mean (geomean) KD (nM) for binders was calculated by transforming unique KD values by log10, arithmetic-mean-averaging the transformed values, and subsequently anti-log-transforming the averaged value.

Regarding `CC[C@H](C)[C@@H]1NC(=O)[C@@H]2CSCC(=O)N3CN(CN(C3)C(=O)CSC[C@@H](C(=O)N[C@@H](C)C(N)=O)NC(=O)[C@H](Cc3ccc(O)cc3)NC(=O)[C@H](CO)NC1=O)C(=O)CSC[C@H](NC(=O)[C@H](C)N)C(=O)N[C@@H](CO)C(=O)N1CCC[C@H]1C(=O)N[C@@H](CC(=O)O)C(=O)N[C@@H](C)C(=O)N[C@@H](Cc1c[nH]cn1)C(=O)N[C@@H](CC(C)C)C(=O)NCC(=O)N2` [BCY15468], at human TfR1, binding was put at a Kd of 143 nM.

With `CC[C@H](C)[C@@H]1NC(=O)[C@@H]2CSCC(=O)N3CN(CN(C3)C(=O)CSC[C@@H](C(=O)N[C@@H](C)C(N)=O)NC(=O)[C@H](Cc3ccc4ccccc4c3)NC(=O)[C@H](CO)NC1=O)C(=O)CSC[C@H](NC(=O)[C@H](C)N)C(=O)N[C@@H](CO)C(=O)N1CCC[C@H]1C(=O)N[C@@H](CC(=O)O)C(=O)N[C@@H](C)C(=O)N[C@@H](Cc1c[nH]cn1)C(=O)N[C@@H](CC(C)C)C(=O)NCC(=O)N2` [compound 16031], binding on human TfR1 was characterised by a dissociation constant (Kd) of 68 nM.

Consider `CC[C@H](C)[C@@H]1NC(=O)[C@@H]2CSCC(=O)N3CN(CN(C3)C(=O)CSC[C@@H](C(=O)N[C@@H](C)C(N)=O)NC(=O)[C@H](Cc3cccc4ccccc34)NC(=O)[C@H](CO)NC1=O)C(=O)CSC[C@H](NC(=O)[C@H](C)N)C(=O)N[C@@H](CO)C(=O)N1CCC[C@H]1C(=O)N[C@@H](CC(=O)O)C(=O)N[C@@H](C)C(=O)N[C@@H](Cc1c[nH]cn1)C(=O)N[C@@H](CC(C)C)C(=O)NCC(=O)N2` [compound 16029], for which binding at human TfR1 was put at a Kd of 60 nM.

On to `CC[C@H](C)[C@@H]1NC(=O)[C@@H]2CSCC(=O)N3CN(CN(C3)C(=O)CSC[C@@H](C(=O)N[C@@H](C)C(N)=O)NC(=O)[C@H](Cc3ccc(O)cc3)NC(=O)[C@H](CO)NC1=O)C(=O)CSC[C@H](NC(=O)[C@H](C)N)C(=O)N[C@@H](CO)C(=O)N1C[C@H](O)C[C@H]1C(=O)N[C@@H](CC(=O)O)C(=O)N[C@@H](C)C(=O)N[C@@H](Cc1c[nH]cn1)C(=O)N[C@@H](CC(C)C)C(=O)NCC(=O)N2` [compound 16047], for which the Kd – broadly, a measure of binding affinity in units of concentration – at human TfR1 turned out to be 49 nM.

`CC[C@H](C)[C@@H]1NC(=O)[C@@H]2CSCC(=O)N3CN(CN(C3)C(=O)CSC[C@H](NC(C)=O)C(=O)N[C@@H](CO)C(=O)N3CCC[C@H]3C(=O)N[C@@H](CC(=O)O)C(=O)N[C@@H](C)C(=O)N[C@@H](Cc3c[nH]cn3)C(=O)N[C@@H](CC(C)C)C(=O)NCC(=O)N2)C(=O)CSC[C@@H](C(N)=O)NC(=O)[C@H](Cc2ccc(O)cc2)NC(=O)[C@H](CO)NC1=O` [BCY15891] (Ac-CSPDAHLGCISYC-NH2; linker 1-9-13 via TATB): in “Mouse plasma stability”, the half-life (as a rule, how long it takes for the measured level to halve) was 1360 min.
